From US9662319B2 (Mayo Foundation for Medical Education and Research, priority 2011, dated 2017)

Experiments:
human MM cells lines = assay: MTT assay, baseline cytotoxicity on a panel of human MM cell lines; assay type: cell-based; conditions: 11 tested MM cell lines, 1.6 μM to 50 μM, 72 hours, in vitro
Experimental: (§1) The lentiviruses expressing NT or CRBN shRNAs were subcloned into a GFP containing construct and used to infect various myeloma cell lines as described elsewhere (Zhu et al., Blood, 117(14):3847-3857 (2011); Epublished Feb. 2, 2011). After a 48-hour infection period, efficiency was measured at 72 hours and 6 days post infection by FACScan analysis of GFP expression. Cell viability was measured by 3-(4,5-dimethylthiazol)-2,5-diphenyl tetrazolium (MTT) dye absorbance according to the manufacturer's instructions (Boehringer Mannheim, Mannheim, Germany). Cells were also harvested at 72 hours post infection for real-time PCR analysis of CRBN levels in control and CRBN shRNA expressing cells. At three weeks post infection, GFP-positive cells were sorted and expanded. Real-time PCR was performed to measure CRBN levels in sorted cells.
In some experiments, cells were incubated with various doses of lenalidomide, dexamethasone, melphalan, or bortezomib. Plates were incubated for 72 hours to six days. Cell viability was determined using an MTT assay. Each experimental condition was performed in triplicate and repeated at least once.
A MTT assay was performed on a panel of genetically heterogeneous human MM cells lines in vitro (FIG. 1). […] The same dose of thalidomide, however, had no effect on MM cell growth.

[1] = system: CRBN depleted myeloma cell lines; assay: MTT cell viability of CRBN shRNA knock-down myeloma cell lines versus NT control cells in presence of anti-myeloma drugs; assay type: cell-based, human; conditions: sorted GFP positive myeloma cell lines with CRBN knock-down
Experimental: as §1
Plates were incubated for 72 hours to six days. Cell viability was determined using an MTT assay. Each experimental condition was performed in triplicate and repeated at least once.
Proliferation of those CRBN depleted but surviving MM cells were then tested in the absence or presence of different anti-myeloma drugs.

`Nc1cccc2c1CN(C1CCC(=O)NC1=O)C2=O` (stereo not shown) [Lenalidomide] was tested, and the “growth of MM cell lines (MTT)” value (human MM cells lines) was “inhibited growth of 8 of 11 tested MM cell lines”.

`CC(C)C[C@H](NC(=O)[C@H](Cc1ccccc1)NC(=O)c1cnccn1)B(O)O` [Bortezomib] was tested, and the “sensitivity of CRBN knock-down cells compared with NT control cells” value [1] was “more sensitive”.

With `Nc1cccc2c1C(=O)N(C1CCC(=O)NC1=O)C2=O` (stereo not shown) [pomalidomide] the “sensitivity of CRBN knock-down cells compared with NT control cells” value [1] was “resistance”.

`O=C1CCC(N2C(=O)c3ccccc3C2=O)C(=O)N1` (stereo not shown) [thalidomide] was tested, and the “growth of MM cell lines (MTT)” value (human MM cells lines) was “no effect”.
